Measurements taken from article PMC6155021, “Ancient and modern anticonvulsants act synergistically in a KCNQ potassium channel binding pocket” (Nature Communications, 2018).

Assays:
KCNQ5 = KCNQ5 (Homo sapiens, UniProt Q9NR82); assay: cell-based; type: cell-based
Text: (§1) cRNA transcripts encoding human KCNA1, KCNQ1, KCNQ2, KCNQ3, KCNQ4, or KCNQ5 were generated by in vitro transcription using the T7 polymerase message machine kit (Thermo Fisher Scientific), after vector linearization, from cDNA sub-cloned into plasmids incorporating X. laevis β-globin 5′ and 3′ UTRs flanking the coding region to enhance translation and cRNA stability. cRNA was quantified by spectrophotometry. Mutant cDNAs were generated by site-directed mutagenesis using a QuikChange kit according to manufacturer’s protocol (Stratagene, San Diego, CA) and corresponding cRNAs prepared as above. Defolliculated stage V and VI X. laevis oocytes (Ecocyte Bioscience, Austin, TX) were injected with Kv channel α subunit cRNAs (10 ng total per oocyte). Oocytes were incubated at 16 °C in Barth’s saline solution (Ecocyte) containing penicillin and streptomycin, with daily washing, for 3–5 days prior to two-electrode voltage-clamp (TEVC) recording.
(§2) Oocytes were placed in a small-volume oocyte bath (Warner) and viewed with a dissection microscope. Chemicals were sourced from Sigma. Bath solution was (in mM): 96 NaCl, 4 KCl, 1 MgCl2, 1 CaCl2, 10 HEPES (pH 7.6). […] MTX (DMSO), sorbic acid (ethanol), and glutaconic acid (molecular grade H2O) were stored at −20 °C as 1 M stocks. Oleamide was stored as a 1 mM stock in ethanol at 4 °C. Palmitic acid was conjugated with bovine serum albumin as a 1 mM stock and stored at −20 °C. All compounds were diluted to working concentrations each experimental day. All compounds were introduced to the recording bath via gravity perfusion at a constant flow of 1 ml/min for 3 min prior to recording. Pipettes were of 1–2 MΩ resistance when filled with 3 M KCl. Currents were recorded in response to pulses between −80 and +40 mV at 20 mV intervals, or a single pulse to +40 mV, from a holding potential of −80 mV, to yield current–voltage relationships, current magnitude, and for quantifying activation rate. TEVC data analysis was performed with Clampfit10.2 (Molecular Devices) and Graphpad Prism software (GraphPad, San Diego, CA, USA); values are stated as mean ± SEM. Normalized tail currents were plotted versus prepulse voltage and fitted with a single Boltzmann function:1 g=A1-A2/1+expV12-Vy+A2, where g is the normalized tail conductance, A1 is the initial value at −∞, A2 is the final value at +∞, V1/2 is the half-maximal voltage of activation, and Vs the slope factor. Activation and deactivation kinetics were fitted with single-exponential functions.

Q2/W265L-Q3 channels = Q2/W265L-Q3 channels (Homo sapiens, UniProt O43525+O43526, W265L); assay: Two-electrode voltage-clamp of Q2/W265L-Q3 mutant channels in Xenopus oocytes; type: cell-based; conditions: for Non-normalized tail current V0.5 / Normalized tail current V0.5 / Slope: Q2/W265L-Q3
Text: as §1, §2

KCNQ1 = KCNQ1 (Homo sapiens, UniProt P51787); design: method as in PMID 27997884; conditions: cited from earlier work
[1] = rats fed Mallotus philippensis extract; cited from earlier work

Chain of Q2/W265L-Q3 channels (O43526 whole entry): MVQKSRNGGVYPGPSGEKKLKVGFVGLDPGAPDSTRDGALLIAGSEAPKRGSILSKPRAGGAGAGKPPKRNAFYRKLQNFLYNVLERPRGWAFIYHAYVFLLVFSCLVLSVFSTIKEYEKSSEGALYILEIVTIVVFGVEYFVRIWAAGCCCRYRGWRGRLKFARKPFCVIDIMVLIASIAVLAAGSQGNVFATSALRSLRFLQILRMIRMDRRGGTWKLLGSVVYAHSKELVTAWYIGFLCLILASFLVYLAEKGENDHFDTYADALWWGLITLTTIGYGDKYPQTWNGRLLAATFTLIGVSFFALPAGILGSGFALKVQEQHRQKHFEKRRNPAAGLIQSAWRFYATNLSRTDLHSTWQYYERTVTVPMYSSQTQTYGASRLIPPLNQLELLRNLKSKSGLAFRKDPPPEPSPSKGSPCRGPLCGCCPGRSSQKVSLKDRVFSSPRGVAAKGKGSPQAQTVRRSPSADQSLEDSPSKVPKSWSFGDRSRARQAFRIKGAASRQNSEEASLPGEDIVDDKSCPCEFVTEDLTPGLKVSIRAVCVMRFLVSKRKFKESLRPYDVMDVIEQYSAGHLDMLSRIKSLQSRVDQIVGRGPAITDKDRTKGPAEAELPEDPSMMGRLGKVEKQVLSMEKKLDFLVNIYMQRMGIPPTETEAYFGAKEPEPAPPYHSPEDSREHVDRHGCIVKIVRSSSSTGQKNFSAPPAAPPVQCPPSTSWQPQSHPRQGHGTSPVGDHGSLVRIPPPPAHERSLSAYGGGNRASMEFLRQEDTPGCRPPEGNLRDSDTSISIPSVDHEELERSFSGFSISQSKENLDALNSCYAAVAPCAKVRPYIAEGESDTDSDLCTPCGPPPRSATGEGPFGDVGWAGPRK
Chain of Q2/W265L-Q3 channels (O43525 whole entry W265L): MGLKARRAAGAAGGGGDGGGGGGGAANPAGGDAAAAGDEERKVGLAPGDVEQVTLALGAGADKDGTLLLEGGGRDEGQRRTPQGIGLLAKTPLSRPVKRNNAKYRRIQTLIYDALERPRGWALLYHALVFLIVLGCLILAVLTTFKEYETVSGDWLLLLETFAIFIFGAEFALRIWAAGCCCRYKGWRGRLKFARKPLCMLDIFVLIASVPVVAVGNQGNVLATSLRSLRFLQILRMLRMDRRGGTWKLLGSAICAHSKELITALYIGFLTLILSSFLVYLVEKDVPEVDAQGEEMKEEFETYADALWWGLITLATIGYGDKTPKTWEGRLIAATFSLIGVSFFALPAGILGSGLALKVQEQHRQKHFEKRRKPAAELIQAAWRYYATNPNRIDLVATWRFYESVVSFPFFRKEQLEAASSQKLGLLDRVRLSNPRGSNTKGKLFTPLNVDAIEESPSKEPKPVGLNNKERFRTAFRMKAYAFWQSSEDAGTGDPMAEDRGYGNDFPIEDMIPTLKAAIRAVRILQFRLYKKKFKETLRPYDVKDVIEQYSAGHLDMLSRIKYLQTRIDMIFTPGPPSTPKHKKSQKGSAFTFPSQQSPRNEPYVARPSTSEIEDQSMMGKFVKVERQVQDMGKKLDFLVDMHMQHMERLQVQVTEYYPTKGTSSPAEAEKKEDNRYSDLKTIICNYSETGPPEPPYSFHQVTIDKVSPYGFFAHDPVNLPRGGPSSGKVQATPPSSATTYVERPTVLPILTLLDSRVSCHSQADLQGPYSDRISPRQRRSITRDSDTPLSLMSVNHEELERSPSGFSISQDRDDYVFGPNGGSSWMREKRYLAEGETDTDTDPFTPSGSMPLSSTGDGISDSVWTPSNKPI
Chain of KCNQ1 (P51787 whole entry): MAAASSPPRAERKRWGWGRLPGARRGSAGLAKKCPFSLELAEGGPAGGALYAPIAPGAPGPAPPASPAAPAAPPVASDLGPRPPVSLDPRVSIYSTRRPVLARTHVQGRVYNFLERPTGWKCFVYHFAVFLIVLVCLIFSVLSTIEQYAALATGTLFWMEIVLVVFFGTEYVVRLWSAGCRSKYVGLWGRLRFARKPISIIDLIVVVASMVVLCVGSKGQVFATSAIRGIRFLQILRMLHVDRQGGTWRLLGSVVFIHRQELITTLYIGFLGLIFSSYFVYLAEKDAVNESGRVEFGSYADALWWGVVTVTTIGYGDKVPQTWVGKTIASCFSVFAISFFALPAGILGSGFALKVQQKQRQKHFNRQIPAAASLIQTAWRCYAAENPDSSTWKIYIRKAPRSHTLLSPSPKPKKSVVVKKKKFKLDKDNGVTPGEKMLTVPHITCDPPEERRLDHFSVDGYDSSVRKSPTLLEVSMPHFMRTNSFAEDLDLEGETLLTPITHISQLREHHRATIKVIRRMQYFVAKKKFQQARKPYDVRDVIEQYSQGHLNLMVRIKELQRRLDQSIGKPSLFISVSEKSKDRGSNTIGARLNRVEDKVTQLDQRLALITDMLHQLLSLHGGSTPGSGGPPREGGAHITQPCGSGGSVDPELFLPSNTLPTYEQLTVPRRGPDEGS

Compound: CC(=O)c1c(O)c(C)c(O)c(Cc2c(O)c3c(c(C(=O)/C=C/c4ccccc4)c2O)OC(C)(C)C=C3)c1O [MTX, mallotoxin]
- EC50 (KCNQ5): 67.1 µM
- KCNQ5 current increase at −60 mV (KCNQ5; 100 µM): eight-fold
- Non-normalized tail current V0.5 (KCNQ5; KCNQ5, 1 µM): -49.3 ± 1.2 mV
- Normalized tail current V0.5 (KCNQ5; KCNQ5, 1 µM): -49.9 ± 2.1 mV
- Slope (KCNQ5; KCNQ5, 1 µM): 8.3 ± 2.1 mV
- Non-normalized tail current V0.5 (KCNQ5; KCNQ5, 3 µM): -51.7 ± 1.8 mV
- Normalized tail current V0.5 (KCNQ5; KCNQ5, 3 µM): -51.1 ± 2.3 mV
- Slope (KCNQ5; KCNQ5, 3 µM): 8.5 ± 2.1 mV
- Non-normalized tail current V0.5 (KCNQ5; KCNQ5, 10 µM): -51.9 ± 0.8 mV
- Normalized tail current V0.5 (KCNQ5; KCNQ5, 10 µM): -51.5 ± 3.2 mV
- Slope (KCNQ5; KCNQ5, 10 µM): 8.6 ± 2.9 mV
- Non-normalized tail current V0.5 (KCNQ5; KCNQ5, 30 µM): -55.9 ± 0.8 mV
- Normalized tail current V0.5 (KCNQ5; KCNQ5, 30 µM): -55.6 ± 3.8 mV
- Slope (KCNQ5; KCNQ5, 30 µM): 8.8 ± 3.6 mV
- shift in midpoint voltage of activation (KCNQ5; KCNQ5, 30 µM): −14 mV
- Non-normalized tail current V0.5 (KCNQ5; KCNQ5, 100 µM): -71.1 ± 2.6 mV
- Normalized tail current V0.5 (KCNQ5; KCNQ5, 100 µM): -71.6 ± 2.1 mV
- EC50 (Q2/W265L-Q3 channels; EC50, Q2/W265L-Q3, calculated from dose responses): 70 ± 0.6 µM
- Non-normalized tail current V0.5 (Q2/W265L-Q3 channels; 1 µM): -51.3 ± 11.3 mV
- Normalized tail current V0.5 (Q2/W265L-Q3 channels; 1 µM): -45.7 ± 2.9 mV
- Slope (Q2/W265L-Q3 channels; 1 µM): 7.9 ± 1.7 mV
- Non-normalized tail current V0.5 (Q2/W265L-Q3 channels; 3 µM): -52.7 ± 10.5 mV
- Normalized tail current V0.5 (Q2/W265L-Q3 channels; 3 µM): -49.2 ± 2.6 mV
- Slope (Q2/W265L-Q3 channels; 3 µM): 7.9 ± 1.8 mV
- Non-normalized tail current V0.5 (Q2/W265L-Q3 channels; 10 µM): -54.0 ± 9.7 mV
- Normalized tail current V0.5 (Q2/W265L-Q3 channels; 10 µM): -51.8 ± 2.4 mV
- Slope (Q2/W265L-Q3 channels; 10 µM): 7.6 ± 1.4 mV
- Non-normalized tail current V0.5 (Q2/W265L-Q3 channels; 30 µM): -58.0 ± 8.3 mV
- Normalized tail current V0.5 (Q2/W265L-Q3 channels; 30 µM): -56.3 ± 2.2 mV
- Slope (Q2/W265L-Q3 channels; 30 µM): 7.4 ± 1.6 mV
- Non-normalized tail current V0.5 (Q2/W265L-Q3 channels; 100 µM): -63.7 ± 11.2 mV
- Normalized tail current V0.5 (Q2/W265L-Q3 channels; 100 µM): -61.8 ± 2.2 mV
- Slope (Q2/W265L-Q3 channels; 100 µM): 6.6 ± 2.1 mV
- EC50 (Q2/W265L-Q3 channels; V0.5 EC50, Q2/W265L-Q3, calculated from shift in V0.5): 13.7 ± 0.3 µM
- effect on KCNQ1 (KCNQ1): activated
- Oral bioavailability [1]: > 20%
- plasma concentrations [1]: exceeded 2 µg/ml
